Measurements from PubChem BioAssay (NCI).
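Results reflect a 48-hour exposure of cells in 96-well plates to compound at five concentrations. At the TGI there is no net growth.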

Experiments:
Experiment in all cases: NCI anticancer screen, dose series, 48 h
CAKI-1 renal = tested on: CAKI-1 renal
COLO 205 colon = tested on: COLO 205 colon
DU-145 prostate = tested on: DU-145 prostate
HOP-92 NSCLC = tested on: HOP-92 NSCLC
HT29 colon = tested on: HT29 colon
LOX IMVI melanoma = tested on: LOX IMVI melanoma
M14 melanoma = tested on: M14 melanoma
MCF7 breast = tested on: MCF7 breast
MDA-MB-435 = tested on: MDA-MB-435
NCI-H460 lung = tested on: NCI-H460 lung
NCI/ADR-RES ovarian = tested on: NCI/ADR-RES ovarian
OVCAR-4 ovarian = tested on: OVCAR-4 ovarian
OVCAR-5 ovarian = tested on: OVCAR-5 ovarian
OVCAR-8 ovarian = tested on: OVCAR-8 ovarian
RXF 393 renal = tested on: RXF 393 renal
SK-MEL-5 melanoma = tested on: SK-MEL-5 melanoma
SN12C renal = tested on: SN12C renal
SNB-19 CNS = tested on: SNB-19 CNS
U251 CNS = tested on: U251 CNS
UO-31 renal = tested on: UO-31 renal

| Structure (SMILES) | TGI (CAKI-1 renal) [µM] | TGI (COLO 205 colon) [µM] | TGI (DU-145 prostate) [µM] | TGI (HOP-92 NSCLC) [µM] | TGI (HT29 colon) [µM] | TGI (LOX IMVI melanoma) [µM] | TGI (M14 melanoma) [µM] | TGI (MCF7 breast) [µM] | TGI (MDA-MB-435) [µM] | TGI (NCI-H460 lung) [µM] | TGI (NCI/ADR-RES ovarian) [µM] | TGI (OVCAR-4 ovarian) [µM] | TGI (OVCAR-5 ovarian) [µM] | TGI (OVCAR-8 ovarian) [µM] | TGI (RXF 393 renal) [µM] | TGI (SK-MEL-5 melanoma) [µM] | TGI (SN12C renal) [µM] | TGI (SNB-19 CNS) [µM] | TGI (U251 CNS) [µM] | TGI (UO-31 renal) [µM] |
| --- | --- | --- | --- | --- | --- | --- | --- | --- | --- | --- | --- | --- | --- | --- | --- | --- | --- | --- | --- | --- |
| O=C1CSC(c2cccc(Oc3ccccc3)c2)N1c1cc(Cl)ccc1Cl (stereo not given) | 48.8 | 90.8 | > 100 | 42.7 | 50.5 | 43.1 | 50.5 | 23 | 40.2 | 43.2 | 77.4 | 60.8 | 76.9 | 62.5 | 40.3 | 31.3 | 39.1 | 56.6 | 33.2 | 43.3 |
| N#Cc1c2c(c(Nc3ccc(Cl)cc3)n3c1nc1ccccc13)CCCC2 | > 100 | > 100 | > 100 | > 100 | > 100 | > 100 | > 100 | > 100 | > 100 | > 100 | > 100 | > 96.6 | > 100 | > 100 | > 85.1 | > 100 | > 100 | > 64.2 | > 65.4 | > 100 |
| CC(=O)Oc1c(OC(C)C)cc(=O)n2ccsc12 | > 100 | > 100 | > 100 | > 100 | > 100 | > 100 | > 100 | > 100 | 31 | > 100 | > 100 | > 100 | > 100 | > 100 | > 100 | > 100 | > 100 | > 100 | > 100 | > 100 |
| CC(=O)OC1C(C)OC(OC2C[C@](O)(C(C)=O)Cc3c(O)c4c(c(O)c32)C(=O)c2ccccc2C4=O)C(F)C1OC(C)=O (stereo not given in full) | 1.39 | > 100 | 4.59 | 6.52 | > 100 | 3.65 | 10.7 | > 20.2 | 23.5 | 1.53 | 9.46 | 41.8 | 5.45 | 10.7 | 18.9 | 2.18 | 7.76 | 4.99 | 3.65 | 0.567 |
| COc1cc(CC2C(=O)OCC2Cc2ccc(OC)c(OC)c2)ccc1O (stereo not given) | > 100 | > 100 | > 100 | > 100 | > 100 | > 100 | > 100 | > 100 | > 100 | > 100 | > 100 | > 100 | > 100 | > 100 | > 100 | > 100 | > 100 | > 100 | > 100 | > 100 |
| CCc1nc2cc(F)ccc2[nH]c1=O | > 100 | > 100 | > 100 | > 100 | > 100 | > 100 | > 100 | > 100 | > 100 | > 100 | > 100 | > 100 | > 100 | > 100 | > 100 | > 100 | > 100 | > 100 | > 100 | > 100 |
| CCCCCNC(=O)OC1CCn2c1nc1c2C(=O)C(C)=C(N2CC2)C1=O (stereo not given) | 2.9 | 2.82 | 2.37 | 72 | 2.77 | 1.07 | 4.04 | 2.21 | 3.13 | 1.05 | 10.4 | 4.98 | 7.77 | 5.31 | 1.82 | 1.73 | 3.27 | 11.5 | 4.7 | 3.87 |
| CC1SCCc2nc3ccccc3n21 (stereo not given) | > 100 | > 100 | > 100 | > 100 | > 100 | > 100 | > 100 | > 100 | > 100 | > 100 | > 100 | > 100 | > 100 | > 100 | > 100 | > 100 | > 100 | > 100 | > 100 | > 100 |
| CCOP(=O)(OCC)/C(C#N)=C(\C)c1ccco1 | > 10 | > 10 | > 10 | > 10 | > 10 | > 10 | > 10 | > 10 | > 10 | > 10 | > 10 | > 10 | > 10 | > 10 | > 10 | > 10 | > 10 | > 10 | > 10 | > 10 |
| CC(C)(C)OC(=O)NCCCCC1NC(=O)[C@@H]2Cc3c([nH]c4ccccc34)C(c3ccccc3)N2C1=O (stereo not given in full) | > 100 | 46.9 | > 100 | 85.1 | 87.5 | 56.4 | 92.3 | > 100 | > 100 | > 100 | > 100 | > 100 | > 100 | > 100 | 42.2 | 97.8 | 79.6 | > 100 | > 100 | > 100 |
| Cc1c(Cl)cc(C(C)(C)C)c(O)c1Cc1c(C)c(Cl)cc(C(C)(C)C)c1O | 7.51 | 2.48 | 11.8 | 1.18 | 6.36 | 3.19 | 7.85 | 7.28 | 5.62 | 5.03 | 9.24 | 10.3 | 14 | 5.51 | 2.44 | 2.29 | 9.02 | 12.5 | 7.97 | 4.46 |
